Reference: paper PMC12304293, “Combatting virulent gut bacteria by inhibiting the biosynthesis of a two-component lanthipeptide toxin” (Nature Communications, 2025)
Like-named read-outs stand apart in the source and are kept apart here. Non-standard residues stand in square brackets, D forms with d. Residues, ends and D or L forms follow the SMILES beside them. *: point of attachment. boroGlu = O=C(O)CC[C@H](N*)B(O)O; Abu = CC[C@H](N)C(=O)O

Tests used:
His6-CylA-27-412 [1] = target: T1, His6-CylA-27-412 (Enterococcus faecalis, UniProt A0A2P6AWB8); assay: Analysis of CylA inhibition by LCMS (cleavage of mCylLL and mCylLS); assay type: biochemical; details: 1 µM inhibitor; enzyme 4 nM; substrate 10 µM; 30 min, room temperature
T1 sequence (A0A2P6AWB8 27-412): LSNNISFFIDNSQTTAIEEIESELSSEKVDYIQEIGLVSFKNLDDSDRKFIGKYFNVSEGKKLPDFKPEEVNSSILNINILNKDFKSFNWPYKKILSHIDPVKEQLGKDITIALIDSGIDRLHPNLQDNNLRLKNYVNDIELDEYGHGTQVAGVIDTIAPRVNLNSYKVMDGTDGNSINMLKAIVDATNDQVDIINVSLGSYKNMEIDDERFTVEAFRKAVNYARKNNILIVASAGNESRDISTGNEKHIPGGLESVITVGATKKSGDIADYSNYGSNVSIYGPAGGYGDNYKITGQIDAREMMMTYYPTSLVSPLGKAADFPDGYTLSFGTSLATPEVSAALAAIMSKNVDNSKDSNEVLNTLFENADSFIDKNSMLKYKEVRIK
Experimental: We expressed CylA in Escherichia coli with an N-terminal His6-tag and without the secretion signal that is present in WT CylA. […] (4 nM) gave partial conversion to the mature core peptide after 30 min at room temperature.
A Peak highlighted in green is the LP and peak highlighted in orange is CylLL”. B Peak highlighted in blue is the LP and peak highlighted in violet is CylLS”. Longer incubation times result in near-complete cleavage of the substrates. Source data are provided as a Source Data file.
His6-CylA-27-412 was added to PBS (pH = 7.4) to achieve a total enzyme concentration of 4 nM then 1 was added to a concentration 1 μM. […] Reactions were allowed to stand for 30 min before quenching through adjustment to 1% formic acid. Reactions were analyzed directly by LCMS using a Jupiter 5 µm C4 300 Å, 50 × 2 mm LC column. The following gradient was used: 98% H2O + 0.1% FA (solvent A)/2% MeCN + 0.1% FA (solvent B) for 2 min then 98:2 to 2:98 solvent A:solvent B over 10 min. Extracted ion chromatograms (EIC) for each species were merged into a single trace. […] CylA was also previously reported to prefer the modified peptides over the linear peptides.

His6-CylA-27-412 [2] = target: T1, His6-CylA-27-412; assay: Co-operative pore formation assay (pyranine liposomes) measuring CylA-catalyzed cytolysin maturation; assay type: biochemical
Excerpt: Cytolysin causes hemolysis and lyses a variety of eukaryotic cells[36],[37]. Additionally, CylA aggregates and is thought to associate primarily with the membrane of the producing cell[52],[53]. To mimic the maturation of cytolysin in vitro, an enzyme assay was designed that linked toxin production to the lysis of fluorescently labeled liposomes. […] In this way, pyranine fluorescence was correlated to toxin activation allowing for the determination of EC50 values (Fig. 4B, C).
Fig. 4 In vitro pore formation assay for determining inhibitor effectiveness. A A schematic of the assay showing how pore formation is used as an indicator of toxin maturation. […] Pore formation dissipates a pH gradient between the interior of the liposome and the surrounding buffer increasing pyranine fluorescence. […] The data points from two replicates are shown (n = 2). Source data are provided as a Source Data file.
Pyranine encapsulated liposomes were prepared as described elsewhere. […] To a well in a black 96-well plate (200 µL) was added 90 µL high pH buffer (5 mM MES, 5 mM Tricine, 5 mM NaCl, pH 7.4) containing CylA (4 nM final concentration). After adding inhibitor, the mixture was incubated at room temperature for 10 min then freshly prepared (no more than 2 days old) pyranine encapsulated DOPC liposomes were added such that the total DOPC concentration was 80 µM. […] The resulting curves were max-min normalized yielding the fraction of permeabilized liposomes. […] This experiment was performed in duplicate or triplicate for each inhibitor at each concentration.
Supplementary Figure 3. Measuring CylA-cat alyzed cytolysin maturation using a pyranine pore formation assay. Plots on the left side show the normalized pyranine emission intensity monitored […]
was added 30 min later. Each trace w as collected using a differ ent total co ncentration of inhibitor as indicated in the l egend. Traces are from a single representative tri al. On the right side, the fraction of liposomes permeabilized after 30 min was plotted as a function of total inhibitor concentration. The data were fit to a dose-response function using Origin 7 and the fit curve is depicted by the red line. Errors bars represent the standard of deviation bet ween two replicates (n = 2). Source d ata are pro vided as a Source Data file. […]

HeLa cells = assay type: cell-based
Experimental: Cell culturing and maintenance was performed in Dulbecco’s Modified Eagle Medium (DMEM, Gibco) supplemented with 10% heat inactivated fetal bovine serum (FBS, Gibco). Cells were routinely checked for mycoplasm using mycoplasm specific primers. HeLa cells (ATCC) were seeded in 96 well plates (Nunc) using a seeding density of 5000 cells/well and allowed to adhere for 16 h at 37 °C, 5% CO2. […] Post-treatment, plates were incubated for 72 h at 37 °C, 5% CO2. Subsequently, the growth medium was removed, and the cells were washed once with pre-warmed phosphate buffered saline (PBS; pH = 7.2). Next, 50 µL of DMEM-FBS media containing 1 mg/mL of 3-(4,5-dimethylthiazol-2-yl)-2,5-diphenyltetrazolium bromide (MTT) was added to the cells and the cells were incubated in the dark at 37 °C, 5% CO2 for 4 h. During this time, live cells reduced yellow tetrazolium salts to purple formazan crystals through NAD(P)H-dependent oxidoreductase activity. After 4 h, the medium was removed carefully and the insoluble formazan crystals were solubilized by incubating with 100 µL of dimethyl sulfoxide (DMSO) in the dark for 1 h with intermittent swirling. Finally, absorbance was recorded at 575 nm (Supplementary Fig. 18). The percentage of cells that survived over the course of the assay was calculated using Eq. 1.1 %survival=100%−Absorbanceoftreatedwell−AvgAbsorbanceofnegativecontrolwells/AvgAbsorbanceofpositivecontrol−AvgAbsorbanceofnegativecontrol*100% […]
Supplementary Figure 18.Cytotoxicity assay of boronic acid inhibitors 2 , 3, 5- 9 against HeLa […]
µM or less as determined by an MTT-based assay. Puromycin was used as positive control, while deionized sterile w ater w as used as a n egative con trol. Source data are prov ided as a Source Dat a […]

For `CC(=O)NCC(=O)N[C@@H](CC(=O)O)C(=O)N[C@H](C(=O)N[C@@H](CCC(N)=O)C(=O)N[C@@H](C)C(=O)N[C@@H](CCC(=O)O)B(O)O)C(C)C` [Compound 1] (Ac-GDVQA-boroGlu), the “His6-CylA-27-412-catalyzed cleavage of mCylLS and mCylLL” value (His6-CylA-27-412 [1]) was “completely blocked”.

For `CC[C@H](NC(=O)[C@H](CCC(N)=O)NC(=O)[C@@H](NC(=O)[C@H](CC(=O)O)NC(=O)CNC(C)=O)C(C)C)C(=O)N[C@@H](CCC(=O)O)B(O)O` [Compound 6] (Ac-GDVQ[Abu]-boroGlu), the EC50 (His6-CylA-27-412 [2]) was 70 ± 11 nM and the “increase in EC50 relative to 1” value (His6-CylA-27-412 [2]; pore formation assay) was ~ 2 fold.

`CC(=O)N[C@@H](CO)C(=O)N[C@@H](CC(=O)O)C(=O)N[C@H](C(=O)N[C@@H](CCC(N)=O)C(=O)N[C@@H](C)C(=O)N[C@@H](CCC(=O)O)B(O)O)C(C)C` [Compound 8] (Ac-SDVQA-boroGlu) was tested, and the EC50 (His6-CylA-27-412 [2]) was 40 ± 3 nM.

For `COc1ccc(C[C@H](N)C(=O)N[C@H]2[C@@H](O)[C@H](n3cnc4c(N(C)C)ncnc43)O[C@@H]2CO)cc1` [puromycin], the “% survival” value (HeLa cells; additive concentration 1.6 (unit not given)) was 5.522%, the “% survival” value (HeLa cells; additive concentration 3.1 (unit not given)) was 4.2% and the “% survival” value (HeLa cells; additive concentration 6.3 (unit not given)) was 4.093%. The “% survival” value (HeLa cells; additive concentration 13 (unit not given)) was 3.889%, the “% survival” value (HeLa cells; additive concentration 25 (unit not given)) was 3.867% and the “% survival” value (HeLa cells; additive concentration 50 (unit not given)) was 3.889%. The “% survival” value (HeLa cells; additive concentration 100 (unit not given)) was 3.867%.
